# Source: PubChem BioAssay (NCI)
#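 Interpolation was linear, between the two tested concentrations surrounding the appropriate level; five concentrations were tested over 48 hours in 96-well plates. TGI marks complete inhibition of growth.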
# What was measured:
# Assay in all cases: NCI tumour cell line growth inhibition, 48 h
# HS 578T breast = system: HS 578T breast
# HT29 colon = system: HT29 colon
# LOX IMVI melanoma = system: LOX IMVI melanoma
# MCF7 breast = system: MCF7 breast
# MDA-N = system: MDA-N
# NCI-H226 lung = system: NCI-H226 lung
# NCI-H460 lung = system: NCI-H460 lung
# NCI-H522 lung = system: NCI-H522 lung
# NCI/ADR-RES ovarian = system: NCI/ADR-RES ovarian
# SF-268 CNS = system: SF-268 CNS
# SF-295 CNS = system: SF-295 CNS
# SK-OV-3 ovarian = system: SK-OV-3 ovarian
# SNB-19 CNS = system: SNB-19 CNS
# SR leukemia = system: SR leukemia
# SW-620 colon = system: SW-620 colon
# UACC-257 melanoma = system: UACC-257 melanoma
# UO-31 renal = system: UO-31 renal
Structure (SMILES),TGI (HS 578T breast) [µM],TGI (HT29 colon) [µM],TGI (LOX IMVI melanoma) [µM],TGI (MCF7 breast) [µM],TGI (MDA-N) [µM],TGI (NCI-H226 lung) [µM],TGI (NCI-H460 lung) [µM],TGI (NCI-H522 lung) [µM],TGI (NCI/ADR-RES ovarian) [µM],TGI (SF-268 CNS) [µM],TGI (SF-295 CNS) [µM],TGI (SK-OV-3 ovarian) [µM],TGI (SNB-19 CNS) [µM],TGI (SR leukemia) [µM],TGI (SW-620 colon) [µM],TGI (UACC-257 melanoma) [µM],TGI (UO-31 renal) [µM]
Cc1cc(C)n(CC(Cn2nc(C)cc2C)=C(/C(Cl)=C(/Cl)Nc2ccc([N+](=O)[O-])cc2)[N+](=O)[O-])n1,33.2,11.3,6.06,14.3,15.3,49.4,10.9,5.01,> 32.8,19.8,20.9,14.2,17.6,8.49,17.7,12.3,6.76
c1ccc2c(Cc3[nH]c4ccccc4c3Cc3c[nH]c4ccccc34)c[nH]c2c1,5.54,6.07,5.57,> 26.5,5.47,24.5,4.17,3.76,17.2,4.86,16.3,15.4,25.3,15.1,5.59,8.47,11.1
O=C1CSC(/C=C/c2ccccc2)N1c1nc2cc3sc(N4C(=O)CSC4/C=C/c4ccccc4)nc3cc2s1 (stereo not given),> 100,> 67,> 100,> 100,> 100,> 95.5,> 100,> 100,> 100,> 100,> 100,> 100,> 100,> 83.7,> 100,> 100,> 100
N#Cc1nc(CCN2C(=O)c3ccccc3C2=O)oc1N,> 100,> 100,> 100,> 100,> 100,> 100,> 100,> 100,> 100,> 100,> 100,> 100,> 100,> 100,> 100,> 100,> 100
CC[C@H](C)[C@H]1NC(=O)[C@@H](NC(=O)[C@@H](CC(C)C)N(C)C(=O)C2CCCN2C(=O)[C@H](C)O)[C@@H](C)OC(=O)[C@H](Cc2ccc(OC)cc2)N(C)C(=O)[C@@H]2CCCN2C(=O)[C@H](CCCCNC(=O)OCc2ccccc2)NC(=O)[C@H](C)C(=O)[C@H](C(C)C)OC(=O)C[C@@H]1O (stereo not given in full),8.35,16.4,> 25,> 25,> 25,> 25,> 25,> 25,> 25,> 25,> 25,> 25,> 25,> 25,> 25,> 25,> 25
Cc1ccn2c(=O)cc(CN3CCOCC3)nc2c1,> 100,> 100,> 100,> 100,> 100,> 100,> 100,> 100,> 100,> 100,> 100,> 100,> 100,> 100,> 100,> 100,> 100
C=C1C(=O)O[C@H]2C/C(C)=C/CC[C@@]3(C)O[C@](C)(CC[C@@H]3I)[C@@H](I)C[C@@H]12,26,14.9,6.34,9.61,10.9,2.13,13.2,8.64,5.65,14.4,15,14.4,13.5,8.2,12.4,12.7,11.8
CC(C)C1C(=O)N(c2c(F)c(F)c(F)c(F)c2F)C(=S)N1CCS(=O)c1ccccc1 (stereo not given),62.6,27.8,28.2,35.3,32.4,38.5,40.1,12.6,40.8,32.6,33.1,34.9,34.6,16.2,35.5,35.5,28.6
O=c1[nH]c(Cc2ccccc2)nc2c1sc1nc3ccccc3n12,> 100,> 100,> 100,> 100,> 100,> 100,> 100,> 100,> 100,> 100,> 100,> 100,> 100,> 100,> 100,> 100,> 100
O=c1c2cc(I)ccc2nc(SCc2nncs2)n1Cc1ccccc1,57.8,> 100,> 100,> 100,> 100,> 100,> 100,61,> 100,> 100,> 100,> 100,> 100,> 100,> 100,> 100,2.6
